From patent US7514432B2, “Compounds and methods of treating cell proliferative diseases, retinopathies and arthritis” (Exonhit Therapeutics SA, priority 2003, dated 2009)
Like-named read-outs stand apart in the source and are kept apart here.

How the values were obtained:
MDA-MB-231 = assay: Cell viability assay (MTT), MDA-MB-231; type: cell-based, human; details: 1% DMSO
How it was run: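 Cells seeded 24 h before treatment with 0–200 μM compound (11 concentrations, 1% DMSO final) in 10% or 0.5% FBS medium; exposure 16 h, 3 or 6 days, fed every 3 days in 6-day runs. MTT 0.5 mg/ml read at 550 nm; IC50 from dose-response curves, mean±SEM.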

MCF7 = assay: Cell viability assay (MTT), MCF7; type: cell-based; details: Homo sapiens, 10% FBS, 1% DMSO
Method: Table 12: 6-day cell viability assay (MTT) in the presence of 10% Fetal Bovine Serum and 1% DMSO, in HMEC1, HCT116, MDA-MB-231, MCF7 and NIH3T3 cell lines. 3 10^3 to 15 10^3 cells were seeded in 48-well plates in growth medium containing 10% FBS, with or without various concentrations of test compounds. Cell cultures were fed every 3 days with the appropriate media. Cell viability was determined on day 6. Data were analyzed and IC50s were calculated from dose-response curves using GraphPad Prism. Results summarized in the tables are mean±SEM of 1 to 8 independent experiments.
(§1) Table 14: 3-day cell viability assay (MTT) in the presence of 10% Fetal Bovine Serum and 1% DMSO, in DLD1, HCT116, MDA-MB-231, MCF7 and HeLa cells. 7.5 10^3 to 1.5 10^4 cells were seeded in 48-well plates in growth medium containing 10% FBS, with or without various concentrations of test compounds. Data were analyzed and IC50s were calculated from dose-response curves using GraphPad Prism. Results summarized in the tables are mean±SEM of 1 to 7 independent experiments.
(§2) In order to determine a compound's effect on cell viability, microculture tetrazolium assays (MTT) were performed as described by Carmichael et al. (1996) with modifications. Four human tumoral cell lines, namely HCT116 colon adenocarcinoma, H460 lung carcinoma, MCF-7 and MDA-MB-231 breast carcinoma cell lines, DLD1 colorectal adenocarcinoma, HeLa adenocarcinoma, HepG2 hepatocellular carcinoma. 3 immortalized but non tumorigenic cell lines, namely NIH3T3 mouse fibroblasts (American Type Culture Collection) and primary hepatocytes (Biopredic international), cultured according to their recommendations together with Human Microvasculature Endothelial Cell line HMEC1 (National Center for Infectious Diseases). Briefly, cells were seeded in 48-well plates 24 hours before drug addition. Cells were treated with 0 to 200 μM (11 concentrations) of compound solubilized in DMSO, adjusting the final concentration of DMSO to 1% in the well. 16 hours, and three or six days after treatment, 0.5 mg/ml MTT (Sigma) was added to the medium and cells were incubated for 1-5 hours at 37° C. before solubilization of formazan crystals in 100% DMSO. Absorbance was measured using a spectrophotometer at a wavelength of 550 nm. Data was analyzed using the GraphPad Prism software (GraphPad Software, Inc.), and IC50 (dose leading to 50% cell death) was calculated from the dose-response curves.

NIH 3T3 = assay: Cell viability assay (MTT), NIH 3T3; type: cell-based, mouse; details: 10% FBS, 1% DMSO
How it was run: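 MTT viability in medium with 10% FBS and 1% DMSO, with cells seeded 24 h before treatment at 0–200 μM (11 concentrations). There were two formats: 6-day (3–15 10^3 cells, re-fed every 3 days) or 16-hour (5–10 10^4 cells). Absorbance was read at 550 nm, giving IC50 (50% cell death) as mean±SEM.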

DLD1 = assay: Cell viability assay (MTT), DLD1; type: cell-based; details: Homo sapiens, DLD-1, 72 h, 10% FBS, 3-day treatment, 1% DMSO
Method: as §1, §2

Primary Hepatocytes = assay: Cell viability assay (MTT), primary hepatocytes; type: cell-based; details: Hepatocyte, 10% FBS, 16-hours treatment, 1% DMSO
Method: Table 15: 16-hour cell viability assay (MTT) in the presence of 10% Fetal Bovine Serum and 1% DMSO, in HCT116, MDA-MB-231, NIH3T3, HepG2 and primary hepatocytes. 5 10^4 to 10 10^4 cells were seeded in 48-well plates in growth medium containing 10% FBS, with or without various concentrations of test compounds. Data were analyzed and IC50s were calculated from dose-reponse curves using GraphPad Prism. Results summarized in the tables are mean±SEM of 1 to 2 independent experiments.
as §2

NIH3T3 = assay: Boyden chamber migration assay, NIH3T3; type: cell-based, mouse; details: Mus musculus, FBS as chemoattractant
Method: FIG. 4: Migration assays. (A) Wound healing assay in REF cells. 7.6 10^4 cells were plated on coverslips 48 hours before the experiment. The cells were pre-treated for 30 min. with the compounds, and then a scrape was done using a pipette tip. The scraped coverslips in treatment medium were put under a thermostated microscope coupled to a video camera. Movies were analyzed as described in material and methods, and velocity and total distance covered by the cells were evaluated. Bar graphs represent the mean±SEM of 2 to 4 experiments. (B) Boyden chamber migration assay in HMEC1, NIH3T3 and MDA-MB-231 cells. 5 10^4 to 7.5 10^4 Cells, resuspended in culture medium with or without FBS and with different compound concentrations, were seeded in the upper Boyden blind well on top of 8 μm pore-sized filters. The ability of the cells to migrate through the filter was assayed in the absence or presence of FBS in the lower Boyden chamber. After 16 hours incubation, the medium was removed and replaced with calcein-AM containing medium. After labeling, cells were washed with HBSS and fluorescence was read in a fluorescence plate reader. Fluorescence values were normalized against the fluorescence obtained for the 1% DMSO control. The data plotted are the means±SEM of 2 to 4 independent experiments.
An essential characteristic of malignant cells is their ability to migrate, invade host tissues and to produce metastases. In order to evaluate the capacity of one compound to affect the ability of tumoral cells to migrate, migration assays were performed using highly invasive tumoral cells MDA-MB-231, endothelial cells HMEC1 or fibroblastic cells NIH3T3. This assay was performed using Falcon HTS Fluoroblock inserts. Culture medium containing Fetal Bovine Serum (FBS; which is used as a chemoattractant) was added to the plate wells and 2 10^4 to 7.5 10^4 cells resuspended in medium without FBS and with 0.1% BSA were added to each insert well. The compound of interest was added to the medium in both the upper and the lower chambers. Plates were incubated for 16 hours at 37° C. Following incubation, the medium was removed from the upper chamber and the entire insert plate was transferred to a second 24-well plate containing 4 μg/ml Calcein-AM™ in medium containing 0.1% BSA. The plates were incubated for one hour at 37° C., rinsed with Hanks Buffered Saline (HBSS). Fluorescence data were collected using Fluoroskan Ascent FL fluorescence plate reader at an excitation wavelength (Ex) of 485 nm and emission wavelength (Em) of 517 nm. Only those labelled cells that passed through the Matrigel layer and the membrane were detected. Data were analyzed using the GraphPad Prism software and IM50s (dose at which 50% inhibition of cell migration is observed) were calculated.

[1] = Homo sapiens, MDA-MB-231, 16 h, 10% FBS, 16-hours treatment, read-out: IC50 μM, MDA-MB-231
[2] = Homo sapiens, MDA-MB-231, 72 h, 10% FBS, 3-day treatment, read-out: IC50 μM, MDA-MB-231
[3] = Homo sapiens, MDA-MB-231, 144 h, 0.5% FBS, 6-day treatment, read-out: IC50 (μM), MDA-MB-231
[4] = Mus musculus, NIH3T3, 16 h, 16-hours treatment
[5] = Mus musculus, NIH3T3, 144 h, 6-day treatment

SMILES	IC50 (MDA-MB-231; 10% FBS, 6-day treatment, dihydrochloride, read-out: IC50 μM, MDA-MB-231) [µM]	IC50 (MDA-MB-231; [1]) [µM]	IC50 (MDA-MB-231; [2]) [µM]	IC50 (MDA-MB-231; [3]) [µM]	IC50 (MDA-MB-231; Homo sapiens, MDA-MB-231, 144 h, 10% FBS, 6-day treatment, read-out: IC50 μM, MDA-MB-231) [µM]	IC50 (MCF7; MCF7, 72 h, 3-day treatment) [µM]	IC50 (MCF7; MCF7, 144 h, 6-day treatment) [µM]	IC50 (NIH 3T3; [4]) [µM]	IC50 (NIH 3T3; [5]) [µM]	IC50 (DLD1) [µM]	IC50 (Primary Hepatocytes) [µM]	IC50 (NIH3T3; NIH3T3, 16 hours) [µM]	IC50 (NIH3T3; NIH3T3, 16 h) [µM]	IC50 (MDA-MB-231; 10% FBS, 6-day treatment, trihydrochloride, read-out: IC50 μM, MDA-MB-231) [µM]	IC50 (NIH 3T3; 6-day treatment, trihydrochloride) [µM]
Cl.Cl.O=c1cc(CN2CCOCC2)occ1OCCCCCSc1ccnc2cc(C(F)(F)F)ccc12 [EHT 1864, 5-(5-(7-(Trifluoromethyl)quinolin-4-ylthio)pentyloxy)-2-(morpholinomethyl)-4H-pyran-4-one dihydrochloride]	9.3	126	9.9	6.3	< 9	15.2	5.6	69.3	19.8	21.9	> 50	20.4 ± 3.5			
Cl.Cl.Cl.O=c1cc(CN2CCNCC2)occ1OCCCCCSc1ccnc2cc(C(F)(F)F)ccc12 [EHT 8560, 5-(5-(7-(Trifluoromethyl)quinolin-4-ylthio)pentyloxy)-2-((piperazin-1-yl)methyl)-4H-pyran-4-one trihydrochloride]			9	4		9.2			5.1	5.6	17.3		10 ± 0.6		
CN1CCN(Cc2cc(=O)c(OCCCCCSc3ccnc4cc(C(F)(F)F)ccc34)co2)CC1.Cl.Cl.Cl [EHT 9241, 5-(5-(7-(Trifluoromethyl)quinolin-4-ylthio)pentyloxy)-2-((4-methylpiperazin-1-yl)methyl)-4H-pyran-4-one trihydrochloride]		48.4	11.1	3.8		7.5	1.2	25.6		8.1	29.6		4.7 ± 0.6	5.3	8.7
